Key:
Type in all cases: cell-based, mouse
EC d4 [1] = test: ZO1 tight junction immunofluorescence; conditions: EC d4 treated 48 h
EC d4 [2] = test: VE-cadherin cell-cell junction immunostaining; conditions: EC d4 treated 48 h
mESC = test: Western blot protein expression (densitometry); conditions: mESC 24 h
Description: (§1) Total protein cell extracts were obtained upon sonication in RIPA buffer (EpiShearTM Probe sonicator, Active Motif [La Hulpe, Belgium]). Protein concentrations were determined using the DC Protein Assay (BioRad [Munich, Germany]). Extracts were supplemented with Roti®-Load buffer (Carl Roth GmbH [Karlsruhe, Germany]) followed by heating (95 °C for 5 min). 20 µg of protein was separated by SDS-PAGE and transferred onto nitrocellulose membrane. After blocking (5% non-fat milk in TBS/0.1% Tween 20 or 5% BSA in TBS/0.1% Tween 20) (1 h, RT) membrane was incubated with primary antibodies (1:500–5000; overnight, 4 °C). After washing with TBS/0.1% Tween 20, peroxidase-conjugated secondary antibody (1:2000) was added (2 h, RT) and bands were visualized using ChemiDoxTM Touch imaging system (BioRad, Munich, Germany).

[3] = tested on: EC d6 (endothelial-like cells); test: Western blot protein expression (densitometry); conditions: EC d6 24 h; for CHK1 protein / RAD51 protein / gH2AX protein / p-CHK2 protein / p-KAP1 protein / p-RPA32 protein / p-p53 protein: Fig 5D
Description: as §1

[4] = tested on: EC d4 (endothelial progenitor cells); test: Western blot protein expression (densitometry); conditions: EC d4 48 h; for CHK1 protein / RAD51 protein / gH2AX protein / p-CHK2 protein / p-KAP1 protein / p-RPA32 protein / p-p53 protein: Fig 5D
Description: as §1

[5] = tested on: EC d6 (endothelial-like cells); test: RT-qPCR mRNA expression; conditions: for Cdkn1a mRNA / Cdkn2a mRNA / Glb1 mRNA / Il6 mRNA / Il8 mRNA / Tp53 mRNA: Fig 7C
Description: Total RNA was purified using the RNeasy Mini Kit (Qiagen, Hilden, Germany). Reverse transcriptase (RT) reaction was performed with the HighCapacity cDNA Reverse Transcription Kit (Applied Biosystems, Darmstadt, Germany) using 900–2000 ng of RNA. Quantitative RT-qPCR analysis was performed using following conditions: (1) 95 °C–10 min; (2) 45 amplification cycles with 95 °C–15 s, 55 °C–15 s, and 72 °C–17 s; (3) 95 °C–1 min, 55 °C–1 min, 65 °C–5 s. If not stated otherwise, analyses were performed in technical triplicates using pooled samples from two independent experiments (each performed with biological duplicates) by use of a CFX96 cycler (BioRad) and the SensiMix SYBR Kit (Bioline, London, UK). The primers used for mRNA expression analyses are listed in Supplementary Table 1. To ensure the specificity of the amplification product, melting curves were recorded at the end of the run. mRNA expression levels were normalized to β-Actin and Gapdh. Relative mRNA expression in mESC or corresponding untreated controls was set to 1.0. Only changes in gene expression of ≤ 0.5- and ≥ 2-fold were considered as biologically relevant.

[6] = Fig 5D, concentration 1 (Dox 1/B02 1/EST 1)
[7] = Fig 5D, concentration 2 (Dox 2/B02 2/EST 2)
[8] = concentration 1 (Dox 1/B02 1/EST 1)
[9] = concentration 2 (Dox 2/B02 2/EST 2)
[10] = EC d6 + 10 µM 24 h + 24 h post incubation
[11] = EC d6 + 20 µM 24 h + 24 h post incubation

O=c1c2ccccc2nc(/C=C/c2cccnc2)n1Cc1ccccc1 [B02]
ZO1 containing tight junctions in EC d6 differentiated from treated EC d4 (EC d4 [1]): did not affect
VE-cadherin cell-cell junctions in EC d6 differentiated from treated EC d4 (EC d4 [2]): did not trigger defects
H3ac protein (mESC; Fig 1D): 1.8 Fold of mESC
H4ac protein (mESC; Fig 1D): 232.9 Fold of mESC
aTubac (acetylated α-Tubulin) protein (mESC; Fig 1D): 0.5 Fold of mESC
CHK1 protein (mESC; Fig 4H, Eto, Dox 1, B02, EST): 1.4 Fold of mESC
p-ATR protein (mESC; Fig 4H, Eto, Dox 1, B02, EST): 2.7 Fold of mESC
p-CHK1 protein (mESC; Fig 4H, Eto, Dox 1, B02, EST): 0.8 Fold of mESC
p-RPA32 protein (mESC; Fig 4H, Eto, Dox 1, B02, EST): 2.0 Fold of mESC
p-p53 protein (mESC; Fig 4H, Eto, Dox 1, B02, EST): 1.2 Fold of mESC
CHK1 protein (mESC; [6]): 0.8 Fold of mESC
RAD51 protein (mESC; [6]): 1.9 Fold of mESC
gH2AX protein (mESC; [6]): < 0.1 Fold of mESC
p-CHK2 protein (mESC; [6]): 0.9 Fold of mESC
p-KAP1 protein (mESC; [6]): 1.30 Fold of mESC
p-RPA32 protein (mESC; [6]): 0.8 Fold of mESC
p-p53 protein (mESC; [6]): 0.9 Fold of mESC
CHK1 protein (mESC; [7]): 1.0 Fold of mESC
RAD51 protein (mESC; [7]): 2.3 Fold of mESC
gH2AX protein (mESC; [7]): 0.5 Fold of mESC
p-CHK2 protein (mESC; [7]): 1.1 Fold of mESC
p-KAP1 protein (mESC; [7]): 1.26 Fold of mESC
p-RPA32 protein (mESC; [7]): 1.3 Fold of mESC
p-p53 protein (mESC; [7]): 1.2 Fold of mESC
AMPKa protein (mESC; Fig 6E): 0.2 Fold of mESC
GSK3b protein (mESC; Fig 6E): 1.3 Fold of mESC
p-p70SK protein (mESC; Fig 6E): 1.2 Fold of mESC
H3ac protein ([3]; Fig 1D): 0.1 Fold of mESC
H4ac protein ([3]; Fig 1D): 0.0 Fold of mESC
aTubac (acetylated α-Tubulin) protein ([3]; Fig 1D): 0.3 Fold of mESC
CHK1 protein [3, 8]: 0.7 Fold of mESC
RAD51 protein [3, 8]: 0.7 Fold of mESC
gH2AX protein [3, 8]: 1.2 Fold of mESC
p-CHK2 protein [3, 8]: 0.1 Fold of mESC
p-KAP1 protein [3, 8]: 0.0 Fold of mESC
p-RPA32 protein [3, 8]: 0.1 Fold of mESC
p-p53 protein [3, 8]: 0.4 Fold of mESC
CHK1 protein [3, 9]: 0.1 Fold of mESC
RAD51 protein [3, 9]: < 0.1 Fold of mESC
gH2AX protein [3, 9]: 0.1 Fold of mESC
p-CHK2 protein [3, 9]: 0.0 Fold of mESC
p-KAP1 protein [3, 9]: 0.0 Fold of mESC
p-RPA32 protein [3, 9]: < 0.1 Fold of mESC
p-p53 protein [3, 9]: 0.2 Fold of mESC
AMPKa protein ([3]; Fig 6E): 0.1 Fold of mESC
GSK3b protein ([3]; Fig 6E): 1.8 Fold of mESC
p-p70SK protein ([3]; Fig 6E): 1.1 Fold of mESC
H3ac protein ([4]; Fig 1D): 0.0 Fold of mESC
H4ac protein ([4]; Fig 1D): 0.0 Fold of mESC
aTubac (acetylated α-Tubulin) protein ([4]; Fig 1D): 0.6 Fold of mESC
CHK1 protein [4, 8]: 0.4 Fold of mESC
RAD51 protein [4, 8]: 0.7 Fold of mESC
gH2AX protein [4, 8]: 1.8 Fold of mESC
p-CHK2 protein [4, 8]: 0.2 Fold of mESC
p-KAP1 protein [4, 8]: 0.0 Fold of mESC
p-RPA32 protein [4, 8]: 0.3 Fold of mESC
p-p53 protein [4, 8]: 0.6 Fold of mESC
CHK1 protein [4, 9]: 0.2 Fold of mESC
RAD51 protein [4, 9]: 0.3 Fold of mESC
gH2AX protein [4, 9]: 0.0 Fold of mESC
p-CHK2 protein [4, 9]: < 0.1 Fold of mESC
p-KAP1 protein [4, 9]: 0.0 Fold of mESC
p-RPA32 protein [4, 9]: 0.4 Fold of mESC
p-p53 protein [4, 9]: 0.3 Fold of mESC
AMPKa protein ([4]; Fig 6E): 0.1 Fold of mESC
GSK3b protein ([4]; Fig 6E): 1.9 Fold of mESC
p-p70SK protein ([4]; Fig 6E): 1.4 Fold of mESC
Cdkn1a mRNA [5, 10]: 1.67 Fold of untreated control
Cdkn2a mRNA [5, 10]: 0.64 Fold of untreated control
Glb1 mRNA [5, 10]: 0.88 Fold of untreated control
Il6 mRNA [5, 10]: 0.85 Fold of untreated control
Il8 mRNA [5, 10]: 0.52 Fold of untreated control
Tp53 mRNA [5, 10]: 0.97 Fold of untreated control
Cdkn1a mRNA [5, 11]: 2.28 Fold of untreated control
Cdkn2a mRNA [5, 11]: 1.15 Fold of untreated control
Glb1 mRNA [5, 11]: 1.64 Fold of untreated control
Il6 mRNA [5, 11]: 1.79 Fold of untreated control
Il8 mRNA [5, 11]: 0.32 Fold of untreated control
Tp53 mRNA [5, 11]: 1.27 Fold of untreated control
Brca1 mRNA ([5]; EC d6 + 20 µM 24 h, Fig 5C): 0.51 Fold of mESC
Chk1 mRNA ([5]; EC d6 + 20 µM 24 h, Fig 5C): 1.27 Fold of mESC
Rad51 mRNA ([5]; EC d6 + 20 µM 24 h, Fig 5C): 0.34 Fold of mESC
Pgc1a mRNA ([5]; EC d6 + 20 µM 24 h, Fig 6D): 0.27 Fold of untreated control
Cldn5 mRNA ([5]; EC d6 + 20 µM 24 h, Fig 8C): 4.85 Fold of EC d4 or d6
Ocln mRNA ([5]; EC d6 + 20 µM 24 h, Fig 8C): 1.87 Fold of EC d4 or d6
Tjp1 mRNA ([5]; EC d6 + 20 µM 24 h, Fig 8C): 1.07 Fold of EC d4 or d6

— PMC13308190, “Endothelial progenitor cell susceptibility to DNA damaging and DDR-modulating compounds determines endothelial differentiation accuracy” (Stem Cell Research & Therapy, 2026)
